# Reference: US8791143B2, “Anthranilic diamide derivatives having cyclic side-chains” (priority 2010, dated 2014)
# Like-named read-outs stand apart in the source and are kept apart here.
# How the values were obtained:
# [1] = system: caterpillars of the armyworm (Spodoptera frugiperda); experiment: Spodoptera frugiperda test (SPODFR spray treatment); assay type: in vivo; conditions: Spodoptera frugiperda, 168 h; for pest or weed control at 100 g/ha / pest or weed control at 500 g/ha: read-out: activity in % (caterpillars killed); for pest or weed control at 500 g/ha: application rate 500 g/ha
# [2] = log P by HPLC on reversed-phase columns (EEC Directive 79/831 Annex V.A8); assay type: physicochemical
# adult Musca domestica = experiment: Musca domestica test (MUSCDO); assay type: in vivo; conditions: 1152 h, read-out: activity (kill in %)
# Protocol: (§1) Solvent: dimethyl sulphoxide
# Vessels containing a sponge treated with the active compound preparation of the desired concentration are populated with adult Musca domestica.
# (§2) After 48 days, the kill in % is determined.
# [3] = system: larvae of the mustard beetle (Phaedon cochleariae); experiment: Phaedon test (PHAECO spray treatment); conditions: Phaedon cochleariae, 168 h, read-out: activity in % (beetle larvae killed)
# [4] = system: green peach aphid (Myzus persicae); experiment: Myzus test (MYZUPE spray treatment); assay type: in vivo; conditions: Myzus persicae, 144 h; for pest or weed control at 100 g/ha / pest or weed control at 500 g/ha: read-out: activity in % (aphids killed); for pest or weed control at 500 g/ha: application rate 500 g/ha
# Boophilus microplus = Boophilus microplus test (BOOPMI injection); assay type: in vivo; conditions: Rhipicephalus microplus, 168 h; 20 μg/animal, injection into the abdomen, after 7 days; read-out: activity in % (no fertile eggs laid)
# Protocol: as §1
# The active compound solution is injected into the abdomen (Boophilus microplus), and the animals are transferred into dishes and stored in a climate-controlled room.
# The activity is assessed by […] of fertile eggs. 100% means that none of the ticks has laid any fertile eggs.
# Lucilia cuprina larvae = experiment: Lucilia cuprina test (LUCICU); assay type: in vivo; conditions: 1152 h, read-out: activity (kill in %)
# Protocol: as §1
# Vessels containing horse meat treated with the active ingredient preparation of the desired concentration are populated with about 20 Lucilia cuprina larvae.
# as §2
# [5] = application rate 100 g/ha, after 7 days
# [6] = reversed-phase C18 HPLC column, pH 2.7, HPLC reversed-phase C18, acidic range pH 2.7 (HCOOH), only or first value of the cell, read-out: log P
# [7] = application rate 100 g/ha, after 6 days
Structure (SMILES),"chromatographic logP [2, 6]",pest or weed control at 100 g/ha [1] [%],log P (second value after the slash) ([2]; pH 2.7),"chromatographic logP ([2]; pH 2.7, log P)",pest or weed control at 100 ppm (adult Musca domestica) [%],pest or weed control at 100 g/ha [3] [%],pest or weed control at 100 g/ha [4] [%],pest or weed control at 0.02 mg (Boophilus microplus) [%],pest or weed control at 100 ppm (Lucilia cuprina larvae) [%],"pest or weed control at 100 g/ha [1, 5] [%]","pest or weed control at 100 ppm (adult Musca domestica; 100 ppm, after 48 days) [%]","pest or weed control at 100 g/ha [4, 7] [%]","pest or weed control at 100 ppm (Lucilia cuprina larvae; 100 ppm, after 48 days) [%]",pest or weed control at 500 g/ha ([1]; after 7 days) [%],pest or weed control at 500 g/ha [3] [%],pest or weed control at 500 g/ha ([4]; after 6 days) [%],pest or weed control at 20 ppm (adult Musca domestica; after 48 days) [%],"inhibition at 100 g/ha ([1]; 100 g/ha, 7 d, comparison with prior art) [%]","inhibition at 100 g/ha ([4]; 100 g/ha, 6 d, comparison with prior art) [%]"
Cc1cc(Cl)cc(C(=O)N[C@@H]2CCOC2=O)c1NC(=O)c1cc(Cn2nnc(C(F)(F)F)n2)nn1-c1ncccc1Cl [Example 42],–,100,2.53,2.84,90,100,100,100,100,–,–,–,–,–,–,–,–,–,–
Cc1cc(C#N)cc(C(=O)NC2CCS(=O)(=O)C2)c1NC(=O)c1cc(Cn2nnc(C(F)(F)F)n2)nn1-c1ccccc1Cl (stereo not drawn) [Example 36],2.82,–,–,–,–,100,–,100,–,100,80,100,100,–,–,–,–,100,100
Cc1cc(C#N)cc(C(=O)NC2CCN(Cc3ccccc3)C2)c1NC(=O)c1cc(Cn2nnc(C(F)(F)F)n2)nn1-c1ncccc1Cl (stereo not drawn) [Example 30],1.9,–,–,–,–,–,–,100,–,–,–,–,100,100,100,100,80,–,–
Cc1cc(C#N)cc(C(=O)NC2COC2)c1NC(=O)c1cc(Cn2nnc(C(F)(F)F)n2)nn1-c1c(F)cccc1F [Example 27],2.79,–,–,–,–,100,–,100,–,100,–,80,100,–,–,–,100,–,–
Cc1cc(C#N)cc(C(=O)NC2COC2)c1NC(=O)c1cc(Cn2nnc(C(F)(F)F)n2)nn1-c1ccccc1Cl [Example 26],2.85,–,–,–,–,100,–,100,–,100,80,100,100,–,–,–,–,–,–

# The next lines start with results.
"chromatographic logP [2, 6]",Structure (SMILES),pest or weed control at 100 g/ha [1] [%],log P (second value after the slash) ([2]; pH 2.7),"chromatographic logP ([2]; pH 2.7, log P)",pest or weed control at 100 ppm (adult Musca domestica) [%],pest or weed control at 100 g/ha [3] [%],pest or weed control at 100 g/ha [4] [%],pest or weed control at 0.02 mg (Boophilus microplus) [%],pest or weed control at 100 ppm (Lucilia cuprina larvae) [%],"pest or weed control at 100 g/ha [1, 5] [%]","pest or weed control at 100 ppm (adult Musca domestica; 100 ppm, after 48 days) [%]","pest or weed control at 100 g/ha [4, 7] [%]","pest or weed control at 100 ppm (Lucilia cuprina larvae; 100 ppm, after 48 days) [%]",pest or weed control at 500 g/ha ([1]; after 7 days) [%],pest or weed control at 500 g/ha [3] [%],pest or weed control at 500 g/ha ([4]; after 6 days) [%],pest or weed control at 20 ppm (adult Musca domestica; after 48 days) [%],"inhibition at 100 g/ha ([1]; 100 g/ha, 7 d, comparison with prior art) [%]","inhibition at 100 g/ha ([4]; 100 g/ha, 6 d, comparison with prior art) [%]"
2.9,Cc1cc(C#N)cc(C(=O)N[C@@H]2CCOC2=O)c1NC(=O)c1cc(Cn2nnc(C(F)(F)C(F)(F)F)n2)nn1-c1ncccc1Cl [Example 44],–,–,–,–,100,–,100,–,100,100,90,100,–,–,–,–,–,–
2.82,Cc1cc(C#N)cc(C(=O)NC2CCS(=O)(=O)C2)c1NC(=O)c1cc(Cn2nnc(C(F)(F)C(F)(F)F)n2)nn1-c1ncccc1Cl (stereo not drawn) [Example 38],–,–,–,–,–,–,100,–,–,100,–,100,100,100,100,–,–,–
3.97,Cc1cc(C#N)cc(C(=O)NC2(c3cccc(C(F)(F)F)c3)CC2)c1NC(=O)c1cc(Cn2nnc(C(F)(F)F)n2)nn1-c1ncccc1Cl [Example 65],–,–,–,–,100,–,100,–,100,–,90,100,–,–,–,80,–,–
3.13,Cc1cc(Cl)cc(C(=O)NC2CCS(=O)(=O)C2)c1NC(=O)c1cc(Cn2nnc(C(F)(F)C(F)(F)F)n2)nn1-c1ncccc1Cl (stereo not drawn) [Example 37],–,–,–,–,–,–,100,–,–,80,–,100,100,100,100,–,–,–
